≈ marks a conversion by molar mass, not a printed value. Read-outs that look alike come from different tables or passages of the source. Square brackets hold non-standard residues; d marks the D form. Peptide text beside a SMILES is read from it. * marks the point of attachment. 5FAM = O=C1OC2(c3ccc(O)cc3Oc3cc(O)ccc32)c2ccc(C(=O)*)cc21; Phe(3,4-Cl2) = N[C@@H](Cc1ccc(Cl)c(Cl)c1)C(=O)O; Cha = N[C@@H](CC1CCCCC1)C(=O)O
What was measured:
[1] = target: T1, E. coli SC (^EcSC, beta ring, DnaN) (Escherichia coli, UniProt P0A988); assay: ITC, peptide interaction with E. coli sliding clamp; type: binding
T1 construct: inferred from the pET15b vector and the Ni-NTA/imidazole purification; made in house; host or cells: E. coli BL21 (DE3) pLys
Method: The DnaN protein was expressed from plasmids pET15b, containing the dnaN gene from E. coli, transfected in BL21 (DE3) pLys E. coli strain. Cells were grown in LB at 37° C. to OD 0.5, then induced by IPTG (0.1 mM) at 28° C. overnight. DnaN protein was first enriched on a Ni-NTA column, eluted with an imidazole step (300 mM) and further purified on a Source Q column in buffer containing 20 mM Tris HCl pH 7.5, 0.5 mM EDTA and 10% glycerol, using a gradient from 0 to 0.5 M NaCl. After a final ultracentrifugation (45K, 1 h, 20° C.), soluble proteins were concentrated on a Centricon 30K (Millipore) in the same buffer and stored at 4° C. in 2 M ammonium sulfate.
ITC experiments were performed on a iTC200 (Microcal Malvern Panalytical) or PEAQ-ITC instrument (Microcal Malvern Panalytical). The E. coli SC were washed extensively with ITC buffer (R1 buffer: 10 mM Hepes pH 7.4, 0.15 M NaCl, 3 mM EDTA) on Centrikon 10K at 4° C. before ITC experiments. […] Similarly, E. coli 70S ribosome particles were also washed extensively with ITC 70S buffer (50 mM Tris HCl pH7.5, 30 mM KCl, 70 mM NH4Cl, 7 mM MgCl2, 1 mM DTT, 5% glycerol) on Centrikon 100K at 4° C. before ITC experiments. […] […] Data were corrected from control experiments in which peptides were injected in ITC buffer solution. Each titration was performed at least twice. Analyses of experimental data were performed with AFFINImeter software (https://www.affinimeter.com; S4S, Santiago de Compostela, Spain).

[2] = test system: E. coli 70S ribosome (^Ec70S); assay: ITC, peptide interaction with E. coli 70S ribosome; type: binding
Method: E. coli MRE600 cells were grown at 37° C. in LB medium until OD^600=1. Cells were centrifuged at 4° C., and pellets were resuspended in buffer A (20 mM Tris HCl pH 7.5; 200 mM NH4Cl; 20 mM MgCl2; 0.1 mM EDTA; 6 mM β-mercaptoethanol) and lysed using a French press at 1.6 kbar. The crude lysate was centrifuged (18 200 rpm) for 30 mn at 4° C. The supernatant was further centrifuged (47000 rpm) at 4° C. for 4 hours and the pellet resuspended in 12.5 ml of buffer A. This solution was laid on a 30% sucrose cushion and centrifuged (34 000 rpm) for 19 hours at 4° C. The ribosome pellet was resuspended in 12.5 ml buffer B (20 mM Tris HCl pH 7.5; 50 mM NH4Cl; 10 mM MgCl2; 0.1 mM EDTA; 6 mM β-mercaptoethanol) and centrifuged again (18 200 rpm) for 1 hour at 4° C. The supernatant was concentrated on Centrikon 100K (Millipore) and washed extensively with ITC 70S buffer. Ribosome concentration was determined by UV absorption at 260 nm. Samples were snap frozen in liquid nitrogen and kept at −80° C.
ITC experiments were performed on a iTC200 (Microcal Malvern Panalytical) or PEAQ-ITC instrument (Microcal Malvern Panalytical). The E. coli SC were washed extensively with ITC buffer (R1 buffer: 10 mM Hepes pH 7.4, 0.15 M NaCl, 3 mM EDTA) on Centrikon 10K at 4° C. before ITC experiments. […] Similarly, E. coli 70S ribosome particles were also washed extensively with ITC 70S buffer (50 mM Tris HCl pH7.5, 30 mM KCl, 70 mM NH4Cl, 7 mM MgCl2, 1 mM DTT, 5% glycerol) on Centrikon 100K at 4° C. before ITC experiments. Peptides (100 to 400 μM) were titrated at 30° C. (303.15 K) in sequential injections (usually 2 μl each) into a SC (20 or 30 μM) or 70S (10 to 15 μM) solution. Data were corrected from control experiments in which peptides were injected in ITC buffer solution. Each titration was performed at least twice. Analyses of experimental data were performed with AFFINImeter software (https://www.affinimeter.com; S4S, Santiago de Compostela, Spain).
The lack of interaction with the ribosome of E. coli has been measured by ITC at 30° C.:
The interactions of these peptides with the E. coli SC (beta ring) and the ribosome were measured by ITC at […]: […]

[3] = test system: E. coli ATCC 25922 (DSM 1103) strain; type: cell-based; details: for MIC: ATCC 25922, 36 h
Method: (§1) E. coli strains were cultivated on either agar or liquid 1× Mueller Hinton broth unless specified. MIC assays were performed in duplicate in 96-well microtiter plates on the basis of the protocol recommended by the Clinical and Laboratory Standards Institute. Briefly, a mix of 5-6 fresh (less than 36 hours) colonies grown on MH agar plates were inoculated in 3 ml of MH broth and incubated for about 16 h at 37° C. under agitation. 30 μl of this saturated culture were inoculated in 3 ml of fresh medium and allowed to grow until OD600 nm of about 0.6-0.8. Dilution to an OD600 nm of 0.002 was made in MH broth. Within a time laps not exceeding 30 min, 50 μl of this cell suspension was added to 50 μl of MH broth (containing or not the peptide/antibiotic diluted in MH broth) in wells of a 96-well round bottom microwell plate (Greiner; final cell density about 2 to 5×10^5 cfu/ml). Plates were incubated at 37° C. for 18-24 h and final turbidity of each well was measured at 620 nm using a Multiskan FC microplate reader (Thermo Scientific). MIC was defined as the minimal antibiotic concentration that result in no increase of turbidity at that time. Each MIC determination was performed in duplicate and at least in two independent experiments. Plating of 75 μl of the content of the wells of interest on LB Agar plates was used to determine the MBC that is defined by a decrease of at least 99.9% of cell viability as compared to the number of viable cells in the inoculum (about 2 to 5×10^4 cfu).
The antimicrobial activities of these peptides have been tested against the E. coli ATCC 25922 (DSM 1103) strain in 1× Mueller-Hinton broth as mentioned above.
The antimicrobial activities of these peptides and controls have been tested against the E. coli ATCC 25922 (DSM 1103) strain in 1× Mueller-Hinton broth.

[4] = test system: E. coli D22 strain; assay: microbe, parasite or virus in culture; type: cell-based; details: D22 strain, 36 h
From the text: E. coli strain D22 (F-, IpxC101, proA23, lac-28, tsx-81, trp-30, his-51, tufA1, rpsL173(strR), ampCp-1 was purchased at E. coli Genetic Stock Center (Yale University) and used in the determination of MIC and in the peptide penetration assays. E. coli ATCC23724 cells were used to infect D. melanogaster flies. 70S ribosomes were purified from the E. coli MRE600 strain (Accession AY140951) and BL21 (DE3) pLys strain was used for production of the DnaN protein.
as §1

[5] = test system: E. coli; details: cited from earlier work
[6] = ITC 25° C., E. coli SC (beta ring)
[7] = ITC, 30° C., E. coli ribosome, FITC-Onc112 series
[8] = ITC 30° C., Table 2A, ^EcSC, Ni = no specific interaction
[9] = ITC 30° C., Table 2B, ^Ec70S, Ni = no specific interaction, FITC peptides (*) values not well defined

T1 sequence (P0A988 whole entry): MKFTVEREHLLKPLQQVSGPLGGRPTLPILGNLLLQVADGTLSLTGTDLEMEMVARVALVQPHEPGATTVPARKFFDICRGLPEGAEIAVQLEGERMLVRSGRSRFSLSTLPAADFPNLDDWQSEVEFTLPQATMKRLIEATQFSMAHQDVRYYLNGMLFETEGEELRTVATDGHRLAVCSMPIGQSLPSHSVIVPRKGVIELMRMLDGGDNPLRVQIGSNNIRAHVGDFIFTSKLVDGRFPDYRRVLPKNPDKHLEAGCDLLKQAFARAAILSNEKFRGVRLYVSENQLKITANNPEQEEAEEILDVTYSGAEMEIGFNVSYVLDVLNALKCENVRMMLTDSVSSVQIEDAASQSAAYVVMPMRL

For `CC[C@H](C)[C@H](NC(=O)[C@@H](CCCNC(=N)N)NC(=O)[C@H](CCCNC(=N)N)NC(=O)[C@@H]1CCCN1C(=O)[C@@H]1CCCN1C(=O)[C@H](CCCNC(=N)N)NC(=O)[C@@H]1CCCN1C(=O)[C@H](CCCNC(=N)N)NC(=O)[C@@H]1CCCN1C(=O)[C@H](CC(C)C)NC(=O)[C@H](Cc1ccc(O)cc1)NC(=O)[C@@H]1CCCN1C(=O)[C@@H]1CCCN1C(=O)[C@H](CCCCN)NC(=O)[C@H](CC(=O)O)NC(=O)[C@@H](NC(=O)[C@H](CCCNC(=N)N)NC(=O)[C@@H]1CCCN1C(=O)CNC(=O)[C@H](Cc1ccccc1)NC(=O)[C@H](CC(C)C)NC(=O)[C@H](CC(=O)O)NC(=O)[C@H](CC1CCCCC1)NC(=O)[C@H](CCC(N)=O)NC(C)=O)C(C)C)C(=O)N[C@@H](Cc1ccc(O)cc1)C(=O)N[C@@H](CC(N)=O)C(=O)N[C@H](CCCNC(=N)N)C(N)=O` [CM1-76] (Ac-Q[Cha]DLFGPRVDKPPYLPRPRPPR[dR]IYN[dR]-NH2), the “ΔG” value [1, 6] was -9.0 kcal/mol, the “ΔH” value [1, 6] was -10.7 kcal/mol and the “interaction with the E. coli ribosome (70S), in words” value ([2]; ITC 25° C.) was “no interaction”. For the same compound, the “MIC” value [3] was 8 to 16 µM and the “factor of improvement of antimicrobial activity versus CA3-30” value ([3]; E. coli ATCC 25922, MIC) was 2.

For `CC[C@H](C)[C@H](NC(=O)[C@@H](CCCNC(=N)N)NC(=O)[C@H](CCCNC(=N)N)NC(=O)[C@@H]1CCCN1C(=O)[C@@H]1CCCN1C(=O)[C@H](CCCNC(=N)N)NC(=O)[C@@H]1CCCN1C(=O)[C@H](CCCNC(=N)N)NC(=O)[C@@H]1CCCN1C(=O)[C@H](CC(C)C)NC(=O)[C@H](Cc1ccc(O)cc1)NC(=O)[C@@H]1CCCN1C(=O)[C@@H]1CCCN1C(=O)[C@H](CCCCN)NC(=O)[C@H](CC(=O)O)NC(=O)[C@@H](NC(=O)[C@H](CCCCN)NC(=O)c1ccc2c(c1)C(=O)OC21c2ccc(O)cc2Oc2cc(O)ccc21)C(C)C)C(=O)N[C@@H](Cc1ccc(O)cc1)C(=O)N[C@@H](CC(N)=O)C(=O)N[C@H](CCCNC(=N)N)C(=O)NCC(=O)N1CCC[C@H]1C(=O)N[C@@H](CCCNC(=N)N)C(=O)N[C@@H](CCC(N)=O)C(=O)N[C@@H](CC1CCCCC1)C(=O)N[C@@H](CC(=O)O)C(=O)N[C@@H](CC(C)C)C(=O)N[C@@H](Cc1ccccc1)C(=O)O` [CM1-92] (5FAM-KVDKPPYLPRPRPPR[dR]IYN[dR]GPRQ[Cha]DLF-OH), the Kd [2, 7] was > 50 µM and the “MIC” value [3] was 16 µM (≈ 61.5 µg/mL).

For `CC[C@H](C)[C@H](NC(=O)[C@@H](CCCNC(=N)N)NC(=O)[C@H](CCCNC(=N)N)NC(=O)[C@@H]1CCCN1C(=O)[C@@H]1CCCN1C(=O)[C@H](CCCNC(=N)N)NC(=O)[C@@H]1CCCN1C(=O)[C@H](CCCNC(=N)N)NC(=O)[C@@H]1CCCN1C(=O)[C@H](CC(C)C)NC(=O)[C@H](Cc1ccc(O)cc1)NC(=O)[C@@H]1CCCN1C(=O)[C@@H]1CCCN1C(=O)[C@H](CCCCN)NC(=O)[C@H](CC(=O)O)NC(=O)[C@@H](NC(=O)[C@H](CCCCN)NC(=O)c1ccc2c(c1)C(=O)OC21c2ccc(O)cc2Oc2cc(O)ccc21)C(C)C)C(=O)N[C@@H](Cc1ccc(O)cc1)C(=O)N[C@@H](CC(N)=O)C(=O)N[C@H](CCCNC(=N)N)C(=O)NCC(=O)N1CCC[C@H]1C(=O)N[C@@H](CCCNC(=N)N)C(=O)N[C@@H](CCC(N)=O)C(=O)N[C@@H](CC1CCCCC1)C(=O)N[C@@H](CC(=O)O)C(=O)N[C@@H](CC(C)C)C(=O)N[C@@H](Cc1ccc(Cl)c(Cl)c1)C(=O)O` [CM1-94] (5FAM-KVDKPPYLPRPRPPR[dR]IYN[dR]GPRQ[Cha]DL[Phe(3,4-Cl2)]-OH; N-terminus assumed), the Kd [2, 7] was > 10 µM and the “MIC” value [3] was 4 to 8 µM.

In the case of `CC[C@H](C)[C@H](NC(=O)[C@@H]1CCCN1C(=O)[C@H](CCCNC(=N)N)NC(=O)[C@@H]1CCCN1C(=O)[C@@H]1CCCN1C(=O)[C@@H](NC(=O)[C@@H]1CCCN1C(=O)[C@H](CCCNC(=N)N)NC(=O)[C@@H]1CCCN1C(=O)[C@H](CC(C)C)NC(=O)[C@H](Cc1ccc(O)cc1)NC(=O)[C@H](CO)NC(=O)CNC(=O)[C@H](CCCCN)NC(=O)[C@H](CC(=O)O)NC(=O)[C@@H](N)C(C)C)[C@@H](C)O)C(=O)N[C@@H](Cc1ccc(O)cc1)C(=O)N[C@@H](CC(N)=O)C(=O)N[C@@H](CCCNC(=N)N)C(=O)N[C@@H](CC(N)=O)C(N)=O` [Py, reference compound] (H-VDKGSYLPRPTPPRPIYNRN-NH2), the “interaction with ^EcSC, in words” value ([1]; ITC 30° C.) is reported as “do not interact”, the “ΔH (kcal/mole)” value ([1]; ITC 30° C. (303.15 K), Table 2A, ^EcSC, Ni = no specific interaction) is reported as “Ni” and the “Kd (nM)” value [1, 8] is reported as “Ni”. For the same compound, the “ΔG (kcal/mole)” value [1, 8] was “Ni”, the “−TΔS (kcal/mole)” value [1, 8] was “Ni” and the Kd ([2]; ITC 30° C., Table 2B, ^Ec70S, Ni = no specific interaction) was 0.0155 µM. The “ΔG” value [2, 9] was -10.9 kcal/mol, the “ΔH” value [2, 9] was -19.2 kcal/mol and the “−TΔS” value [2, 9] was 8.23 kcal/mol. The “MBC” value [4] was 8 µg/mL (≈ 3.42 µM), the “MIC of previous reports” value [5] was 3.69 to 7.56 µM and the “MIC of previous reports” value ([5]; other E. coli strains and/or culture media) was 9 to 18 µg/mL.
